# Results reported in US11560417B2, “Isolated polypeptides of CD44 and uses thereof” (Yissum Research Development Company of the Hebrew …, priority 2014, dated 2023).
# Ends that are not written are not given here. Peptide text beside a SMILES is read from it.
# B1: Serum Amyloid A (SAA): Serum Amyloid A protein added to the fibroblast culture in combination with the 5-mer peptide (protein)
# chain: RSFFSFLGEAFDGARDMWRAYSDMREANYIGSDKYFHARGNYDAAKRGPGGAWAAEVITDARENIQRFFGHGAEDSLADQAANEWGRSGKDPNHFRPAGLPEKY
# Key:
# C57BL/6 mice = assay: Delayed type hypersensitivity (DTH) response to oxazolone; type: in vivo, mouse; details: oxazolone sensitization day 0, elicitation day 6, reading day 7; peptide 200 μg daily
# Protocol: DTH model—C57BL/6 mice were painted at their abdomen with oxazolone solution (sensitization). On day 6, the right ear of each mouse was painted with the same hapten, oxazolone (elicitation), to generate delayed type hypersensitivity (DTH) response. The differences in thickness between the right and the left ears, indicating DTH development, were determined by microcaliper 24 hours later. DTH induction indicates a normal immune response. For additional details see Weiss et al., (2000) Proc. Natl. Acad. Sci. USA. 97, 285-290.
# Treatment protocol—PBS and 5-mer peptide (SEQ ID NO: 1) at a dose of 200 μg was administered one day before the sensitization and then every day during the sensitization period (7 days).
# [1] = system: CIA mice on C57BL/6 background; assay: ELISA for neutralizing anti-peptide antibodies in serum of treated CIA mice; type: in vivo, mouse; details: 70 μg per injection i.p., 10 consecutive days; ELISA plates coated with peptide
# Protocol: (§1) Treatment protocol—PBS, or 5-mer RA peptide (SEQ ID NO: 1) at a dose of 70 μg per injection were administered i.p to CIA mice on C57BL/6 background for 10 consecutive days. In all groups first injection was given at the onset of disease as determined by paw swelling.
# ELISA—96 wells ELISA plates were coated with 5-mer RA peptide (SEQ ID NO: 1), collagen or immunoglobulin (positive control). Serum from CIA mice treated with PBS or the 5-mer RA peptide was added to the coated plates and the presence of neutralizing antibodies against collagen or the RA peptide was detected with anti-immunoglobulin+detection system. The plate wells were coated with 1 mg/ml peptide or protein. Mouse serum was added to the plate wells for 15 hours in cold temperature. The detection system included HRP-anti-mouse IgG and TMB (Bako) substrate. Plates were analysed using an ELISA reader at a wave length of 450 nm.
# [2] = system: fibroblasts from the inflammatory joint of an RA patient; type: cell-based, human
# Protocol: Cells—Fibroblasts from the inflammatory joint of an RA patient were cultured and maintained as shown in Bendersky et al, J Immunol.; 188:4349-59, 2012. A quantity of 20,000 cells was added to each one of the 96 well plates with the indicated concentrations of peptide, serum amyloid A or α-lactalbumin.
# MTT assay—MTT assay was effected as shown in Madhyastha et al. (2015) J Clin Diagn Res.; 9 :ZCO5-8.
# An in-vitro model was developed as a tool to evaluate the biological activity of the generated RA peptides. To this end, fibroblasts from the inflammatory joint of an RA patient were incubated in-vitro and the effect of the peptides on cell survival was evaluated by a MTT assay.
# [3] = system: CIA mice on DBA/1 background; assay: Paw swelling in collagen-induced arthritis (CIA) mice on DBA/1 background; type: in vivo, mouse; details: for joint inflammation (paw swelling) vs PBS / hind paws that remained healthy (paw swelling less than 2 mm): 200 μg per injection i.p.; for joint inflammation (paw swelling) vs PBS: daily for 9-10 days from onset of disease; for hind paws that remained healthy (paw swelling less than 2 mm): daily for 9 days, CIA DBA/1 mice; for paw swelling response vs PBS: 4 times within 6 days from onset of disease
# Protocol: (§2) Mice—Collagen-induced arthritis (CIA) was generated in DBA/1 or C57BL mice by injection of type II collagen as described in Nedvetzki et al., PNAS 101, 18081-18086, 2004.
# as §1, with “protocol—PBS, or the 9-mer RA peptide (SEQ ID NO: 3) at a dose of 25 μg, 100 μg or 150 μg per injection was administered i.p to CIA mice for 4 times within 6 days (see Table 3 below). PBS (n=7),” for “protocol—PBS,”, “1, n=7)” for “1)”
# (§3) Evaluation of joint inflammation—Inflammation was evaluated by the paw swelling response. Paw swelling was measured by micro caliber. Paw swelling at range of 2.1-2.3 mm was considered “onset of disease” and the starting point for injection of the peptides. […] All measurements were performed under blind manner (For additional details see Nedvetzki, et al., (2004) PNAS 101, 18081-18086).
# (§4) Treatment protocol—PBS, or the tested peptides [Ac-TRMTADVDR-NH2 (SEQ ID NO: 6), Ac-MTADVDR-NH2 (SEQ ID NO: 5), Ac-MTADV-NH2 (SEQ ID NO: 4) and scrambled Ac-TMDVADR-NH2 (SEQ ID NO: 7)] at doses of 70 or 200 μg per injection were administered i.p to […] for 9-10 consecutive days (see Tables 4-7 below). As a non-specific control, several mice were administered I.P. with Dexamethsone (Dex) at a dose of 50 μg, following the same protocol. In all groups first injection was given at the onset of disease as determined by paw swelling.
# Evaluation of joint inflammation—As described in Example 2 above. Paw swelling of less than 2 mm was considered healthy.
# [4] = system: CIA mice on C57BL/6 background; assay: Paw/footpad swelling in CIA mice on C57BL/6 background; type: in vivo, mouse; details: 10 consecutive days; for joint inflammation (paw swelling) vs PBS: 70 μg per injection i.p.
# Protocol: as §2, §3, §4
# Treatment protocol—PBS, or the tested peptide [Ac-MTADV-NH2 (SEQ ID NO: 4)] at doses of 10, 25, 70, 200 or 600 μg per injection were administered i.p to CIA mice for 10 consecutive days (see Tables 8-9 below). In all groups first injection was given at the onset of disease as determined by paw swelling.
# To evaluate the optimal anti-inflammatory therapeutic dose of the 5-mer RA peptide, several different doses of the protected peptide (SEQ ID NO: 4) were administered to CIA mice on C57BL/6 background and joint inflammation was determined by footpad swelling measurements (electronic automatic measurements of the volume of the footpad, based on Archimedes observation).
molecule,measurement,setting,value
"CSCC[C@H](N)C(=O)N[C@H](C(=O)N[C@@H](C)C(=O)N[C@@H](CC(=O)O)C(=O)N[C@H](C(=O)O)C(C)C)[C@@H](C)O [5-mer RA peptide, MTADV] (H-MTADV-OH)",DTH response (difference in thickness between right and left ears) vs PBS,C57BL/6 mice,did not affect the DTH response
same,neutralizing antibodies to the peptide in serum,[1],no neutralizing antibodies
same,in-vitro maximal suppressive effect on cell survival,[2],60%
Ac-MTADV-NH2 [5-mer protected RA peptide],joint inflammation (paw swelling) vs PBS,[3],reduces joint inflammation
same,joint inflammation (footpad swelling) vs PBS,[4]; 10 μg per injection i.p.,did not induce a significant anti-inflammatory effect
same,joint inflammation (footpad swelling) vs PBS,[4]; 25 μg per injection i.p.,did not induce a significant anti-inflammatory effect
same,joint inflammation (paw swelling) vs PBS,[4],reduced the joint inflammation
same,joint inflammation (paw swelling) vs PBS,[4]; listed as 5-mer protected peptide,significantly inhibit joint inflammation
same,joint inflammation (footpad swelling) vs PBS,[4]; 200 μg per injection i.p.,reduced the joint inflammation
same,joint inflammation (footpad swelling) vs PBS,[4]; 600 μg per injection i.p.,reduced the joint inflammation
same,optimal and lowest dose for CIA inhibition,[4]; doses 10-600 μg i.p.,70 μg per injection
same,suppressive effect on cell survival compared to the 5-mer RA peptide (SEQ ID NO: 1),[2]; MTT assay,improved the suppressive effect
Ac-MTADVDR-NH2 [7-mer protected RA peptide],joint inflammation (paw swelling) vs PBS,[3],reduces joint inflammation
same,hind paws that remained healthy (paw swelling less than 2 mm),[3],more than 60%
Ac-TMDVADR-NH2 [reference compound],joint inflammation (paw swelling) vs PBS,[3],no effect on footpad swelling
same,hind paws that remained healthy (paw swelling less than 2 mm),[3],33%
Ac-TRMTADVDR-NH2 [9-mer protected RA peptide],joint inflammation (paw swelling) vs PBS,[3],reduce joint inflammation
TRMTADVDR (not fully specified (C-terminus)) [9-mer RA peptide],paw swelling response vs PBS,[3]; 25 μg per injection i.p.,did not show significant difference in paw swelling response
same,paw swelling response vs PBS,[3]; 100 μg per injection i.p.,did not show significant difference in paw swelling response
same,paw swelling response vs PBS,[3]; 150 μg per injection i.p.,significant reduction in paw swelling
B1,effect on the 5-mer peptide's inhibition of cell survival,[2]; 50 μg/ml added in combination with the 5-mer peptide,prevents this inhibition
same,effect on the 5-mer peptide's reduction of fibroblast survival,"[2]; escalating concentrations, 5-mer peptide constant at 25 μg/ml",gradually prevented this reduction
